Columns and labels:
[1] = tested on: U251 human glioblastoma cells; assay: Rat orthotopic glioblastoma model radiotherapy, cilengitide scheduling experiments; format: in vivo, NIH rnu nude rats; settings: individual animals
Description: NIH rnu nude rats are anaesthetized, restrained, and injected intracerebrally 1 mm retro orbitally, 3 mm to the right of the bregma and at a depth of 2.5 mm with 5×10E5 U251 human glioblastoma cells suspended in 10 ul of culture medium, using a #2701 Hamilton syringe fitted with a 26 gauge needle, essentially as previously described (Engebraaten et al., 1999). After 14 days, cilengitide (4 mg/kg) is given as an intraperitoneal bolus in PBS, at various time (8 h, 4 h, 2 h, 1 h) prior to a single treatment with single, collimated, dorsal-ventral beam of 6 MV x-rays, so that 95-100% of the central axis dose of 25 Gy hit the tumor volume (Kim et al., 1999). Each of the 7 subsequent days the animals also received an identical i.p. bolus of cilengitide. The animals are maintained under ad libitum food and drink until they become moribund, or are sampled for tissue analysis (in the t-4 and t-8 h groups, where the animals are healthy past 230 days post tumor injection). A Kaplan-Meier survival curve is calculated and plotted (FIG. 1) from the raw data (Table 1). All animals in the RT monotherapy group died by 120 d.

[2] = tested on: newly diagnosed glioblastoma (GBM); assay: Phase I/IIa trial of cilengitide and temozolomide with concomitant radiotherapy, followed by maintenance, in newly diagnosed glioblastoma; format: in vivo, human
Description: Purpose: To evaluate safety, toxicity, and efficacy of the combination of the cyclic RGD pentapeptide Cilengitide (=cyclo-(Arg-Gly-Asp-DPhe-NMe-Val)), an inhibitor of integrins avβ3 and avβ5, in addition to standard temozolomide (TMZ) and radiotherapy (RT).
Patients and methods: Fifty-two pts (PS 0-1: 92%, 2: 8%; median age 57 yrs) after biopsy (n=9/17%) or tumor resection (n=43/83%) were treated with standard TMZ/RT (Stupp et al. NEJM 2005). In addition Cilengitide (500 mg i.v., 2×/week) was started one week before TMZ/RT and given throughout for the duration of chemotherapy or until progression. Primary endpoint was progression free survival rate at 6 months (target: 65%). Patients were followed with MRI every 2 months. Histopathologic diagnosis and MRI imaging were independently reviewed, MGMT promoter methylation status was assessed in 45 (86.5%) pts.

[3] = tested on: brain metastases; settings: hypofractionation approach with or without the radiosensitizer; cited from earlier work

SMILES | Days Post Implant ([1]; cilengitide 4 mg/kg i.p. 4 hours pre-irradiation (Rt 25 Gy) plus 7 subsequent daily boluses) | Days Post Implant ([1]; cilengitide 4 mg/kg i.p. 8 hours pre-irradiation (Rt 25 Gy) plus 7 subsequent daily boluses) | Treatment related non-hematologic grade 3 toxicities (patients) ([2]; Cilengitide 500 mg i.v. 2x/week plus standard TMZ/RT, n=3/52) | Tolerability of the combination ([2]; Cilengitide and TMZ/RT) | sigmoid perforation (grade 2), patients ([2]; patient with a history of sigmoid diverticulosis) | median survival [3]
CC(C)[C@H]1C(=O)N[C@@H](CCCN=C(N)N)C(=O)NCC(=O)N[C@@H](CC(=O)O)C(=O)N[C@H](Cc2ccccc2)C(=O)N1C [Cilengitide, cyclo-(Arg-Gly-Asp-DPhe-NMeVal)] | > 230 days | > 230 days | 5.7% | well tolerated | One | –
COCC(O)Cn1ccnc1[N+](=O)[O-] (stereo not drawn) [misonidazol] | – | – | – | – | – | ≤ 3.9 months

Reference: patent publication US20110230423A1, “THERAPY AND MEDICAMENT USING INTEGRIN LIGANDS FOR TREATING CANCER” (priority 2008, published 2011)
